Entries after “also recorded” stand apart in the source; their conditions may differ.
Tests used:
[1] = biological target: c-Src (Homo sapiens, UniProt P12931); details: concentration of 50 μM; cited from earlier work
[2] = system: PI4 kinase; details: concentration of 50 μM; cited from earlier work
[3] = system: PKC; details: concentration of 50 μM; cited from earlier work
[4] = system: PI3 kinase; details: concentration of 50 μM; cited from earlier work
[5] = system: MAP kinase; details: concentration of 50 μM; cited from earlier work
[6] = system: Akt phosphorylation; test: Akt phosphorylation in tumor cell lines by Western blotting; assay type: cell-based, Human; details: high (10 μM) and low (0.8 μM) concentrations, within 24 hours
[7] = system: PC3 or LN229 cells; test: Colony formation assay; assay type: cell-based, Human; details: 10 μM, 12 days, compared with control cultures
Protocol: Mitochondrial integrity and cell viability. LN229 or U251 cells were treated with vehicle (DMSO), PI3K inhibitors, BEZ (0.5 μM) or LY294002 (50 μM), alone or combination with Gamitrinib (0.5-5 μM, respectively) for 24 h, and analyzed for changes in mitochondrial membrane potential by JC-1 staining and multiparametric flow cytometry, as described. For cell viability, LN229, U87 or U251 cells treated with vehicle, PI3K inhibitors BEZ or LY294002, or, alternatively, transfected with control cDNA or Δ-p85 dominant negative PI3K mutant, alone or in combination with Gamitrinib, were examined by a 3 (4,5-dimethyl-thyazoyl-2-yl)2,5 diphenyltetrazolium bromide (MTT) colorimetric assay. Changes in cell viability in LN229 cells exposed to PX-866 (0-25 μM) were monitored by Trypan blue staining, or, alternatively, MTT. For apoptosis, LN229 cells (1×10^6) treated with vehicle, Gamitrinib or PI3K inhibitors (BEZ, LY294002), alone or in combination for 24 h, were labeled for annexin V plus propidium iodide (PI) (BD Biosciences), and analyzed by multiparametric flow cytometry (BD), as described. Alternatively, cytosolic fractions isolated from treated tumor cells were analyzed for released cytochrome c, by Western blotting. For analysis of colony-forming ability, PC3 or LN229 cells were treated with vehicle (Veh) or PX-866 (10 μM) and analyzed in a colony formation assay after 12 days. […]

[8] = system: LN229 or PC3 cells; test: Analysis of bioenergetics (ATP, glucose, lactate, oxygen consumption); assay type: cell-based, Human
[9] = system: LN229 cells; test: Global metabolomics screening; assay type: cell-based, Human; details: 10 μM for 48 h
Protocol: Metabolomics screen and Reverse Phase Protein Array (RPPA). Changes in expression of 301 individual metabolites in LN229 cells treated with PX-866 (10 μM for 48 h) were determined in a global metabolomics screening as described previously. For RPPA, PC3 or LN229 cells were treated with vehicle, PX-866 (10 μM) or the combination of PX-866 plus Gamitrinib (5 μM) for 24 h. Data in triplicate samples were normalized for protein loading, converted to linear values and then log2 transformed.
Statistical analysis. Data were analyzed using the two-sided unpaired/tests using a GraphPad software package (Prism 4.0) for Windows. Data are expressed as mean±SEM of replicates of a representative experiment out of at least two independent determinations. A p value of ≤0.05 was considered as statistically significant. For RPPA screens, the False Discovery Rate (FDR) values were estimated using Benjamini-Hochberg correction for multiple testing and changes with FDR<20% of at least 1.2 fold were called statistically significant. […] However, biochemicals that were detected in all samples from one or more groups, but not in samples from other groups, were assumed to be near the lower limit of detection in the groups in which they were not detected. In this case, the lowest detected level of these biochemicals was imputed for samples in which that biochemical was not detected. […]

[10] = system: tumor cells; test: Senescence markers (SA-β-Gal, PML nuclear bodies); assay type: cell-based; details: treated tumor cells
[11] = system: GBM organotypic cultures; test: Tumor kinome transcription (OpenArray real-time PCR) in GBM organotypic cultures; assay type: cell-based, Human
Protocol: Organotypic cultures. Short-term organotypic cultures from the different patient samples were established as described previously. […]
Bioinformatics analysis. Transcriptional changes in the human kinome following PI3K inhibition were analyzed using OpenArray real-time PCR amplification. […] Ct values from the experiment were exported from BioTrove OpenArray Real-Time qPCR Analysis Software v1.0.4. ΔΔCt value method was used to calculate fold changes between sample pairs with endogenous control Ct value calculated as average among 15 endogenous controls on the array: ALAS1, B2M, CASC3, G6PD, GAPDH, GUSB, HMBS, HPRT1, IPO8, POLR2A, PPIA, RPLP0, TFRC, UBE2D2, and YWHAZ. P-values for differential expression were calculated using fold changes of 15 endogenous controls as a null distribution.

[12] = system: Akt2 (Ser474) in cytosol and mitochondria; test: Phosphorylated Akt in cytosol and mitochondrial extracts by Western blotting; assay type: cell-based, Human; details: cytosol and mitochondrial extracts, 48 h
Protocol: Subcellular and submitochondrial fractionation. Mitochondrial fractions were isolated using an ApoAlertTM cell fractionation kit (CLONTECH), as described. Submitochondrial fractions comprising outer membrane (OM), inner membrane (IM), inter-membrane space (IMS) and matrix were prepared as described.

[13] = system: LN229 or PC3 cells; test: Cell cycle, proliferation and viability after PI3K inhibition; assay type: cell-based, Human
Protocol: Mitochondrial integrity and cell viability. LN229 or U251 cells were treated with vehicle (DMSO), PI3K inhibitors, BEZ (0.5 μM) or LY294002 (50 μM), alone or combination with Gamitrinib (0.5-5 μM, respectively) for 24 h, and analyzed for changes in mitochondrial membrane potential by JC-1 staining and multiparametric flow cytometry, as described. For cell viability, LN229, U87 or U251 cells treated with vehicle, PI3K inhibitors BEZ or LY294002, or, alternatively, transfected with control cDNA or Δ-p85 dominant negative PI3K mutant, alone or in combination with Gamitrinib, were examined by a 3 (4,5-dimethyl-thyazoyl-2-yl)2,5 diphenyltetrazolium bromide (MTT) colorimetric assay. Changes in cell viability in LN229 cells exposed to PX-866 (0-25 μM) were monitored by Trypan blue staining, or, alternatively, MTT. For apoptosis, LN229 cells (1×10^6) treated with vehicle, Gamitrinib or PI3K inhibitors (BEZ, LY294002), alone or in combination for 24 h, were labeled for annexin V plus propidium iodide (PI) (BD Biosciences), and analyzed by multiparametric flow cytometry (BD), as described. Alternatively, cytosolic fractions isolated from treated tumor cells were analyzed for released cytochrome c, by Western blotting. For analysis of colony-forming ability, PC3 or LN229 cells were treated with vehicle (Veh) or PX-866 (10 μM) and analyzed in a colony formation assay after 12 days. Colonies were stained with crystal violet. In some experiments, LN229 cells treated with PX-866 (0-25 μM) were analyzed for DNA content by PI staining and flow cytometry.

[14] = system: CypD; test: CypD level and Ser phosphorylation in reconstituted LN229 cells; assay type: cell-based, Human
Source text: Mutant constructs were confirmed by DNA sequencing and transfected in CypD-depleted cells for reconstitution experiments. In some experiments, CypD depleted LN229 cells were transfected with WT or mutant CypD constructs and analyzed for bioenergetics (glucose utilization, oxygen consumption, ATP production) or cell viability (JC1 or Annexin V multiparametri staining, cytochrome c release) readouts.

[15] = system: Ser473-phosphorylated Akt (pAkt); test: Ser473-phosphorylated Akt in patient-derived organotypic cultures; assay type: cell-based, Human; details: Gamitrinib added to PI3K inhibitor-treated tumor organoids
Protocol: Organotypic cultures. Short-term organotypic cultures from the different patient samples were established as described previously. Briefly, precise thick tissue slices (300 μm) were obtained from each case by vibratome serial cutting (VT1200, Leica Microsystems, Milan, Italy), and cultured in six-well plates on organotypic inserts (Millicell PICM ORG, Merck Millipore) for up to 48 h in 1 ml of Ham-F12 complete medium supplemented with vehicle (DMSO, 2.5 μl), pan-PI3K inhibitor LY294002 (50 or 100 μM) or PX-886 (2.5, 5 or 10 μM), or mitochondrial-targeted small molecule Heat Shock Protein-90 (Hsp90) inhibitor, 10 Gamitrinib (GA mitochondrial matrix inhibitor, 10 or 25 μM), or the combination of PX-886 plus Gamitrinib (each agent used at 10 μM). At the end of the experiment, one tissue slice per condition was formalin-fixed and paraffin-embedded (FFPE), and processed for morphological and immunohistochemical analysis. An additional tissue slice collected at the end of the experiment was embedded in optimal cutting temperature, and snap-frozen for molecular or immunofluorescence studies.

[16] = system: LN229 cells; test: High-throughput screening: cell viability (resazurin), compounds with DMSO or Gamitrinib; assay type: cell-based, Human; details: Gamitrinib 1 μM in combination
Protocol: High-throughput screening and synergy experiments. Compounds for the molecular targeted cancer therapeutics were either purchased from SelleckChem or acquired under Material Transfer Agreement (MTA) with the Wistar Institute MTA. Compounds were suspended in DMSO. The purity and identity of the compounds was confirmed by LC/MS for a fraction of the compounds. Source plates with a 10 point dilution series (5-fold dilutions, ranging from 10-0.0001 μmol/L) were prepared for screening. […] Cell viability was determined by the addition of resazurin to a final concentration of 50 μM and incubation for 8 h. Fluorescence intensity (excitation, 560 nm, emission, 590 nm) was determined on an Envision Xcite Multilabel Reader (Perkin-Elmer), and the fractional growth inhibition was determined by normalizing assay wells to the aggregated average responses of positive control (10 μM doxorubicin) and negative control (0.2% DMSO) treatments (n=12).

[17] = system: LN229 cells; test: Bliss independence analysis of Gamitrinib and kinase inhibitors; assay type: cell-based, Human; details: Gamitrinib with NVP-BEZ235, GDC-0941 or AZD6482, 7×7 matrix, 18 h
Protocol: A synergistic anticancer activity of the combination of Gamitrinib and selected kinase inhibitors was further assessed by Bliss independence analysis. For these experiments, LN229 cells were treated with Gamitrinib (concentration range 2-0.008 μmol/L) and selected kinase inhibitors (concentration range 2-0.008 μmol/L) in a 7×7 matrix for 18 h at 37° C. Cell viability was measured by addition of resazurin, and the fractional growth inhibition under the various conditions tested was determined as described above. The Bliss expectation (E) for a combined response was calculated by the equation: E=(A+B)−(A×B) where A and B are the fractional growth inhibitions of drug A and B at a given concentration. […] Each synergy experiment was done two independent times, in duplicate.

[18] = PX-866 (10 μM), AZD6482 (10 μM) or GDC0941 (2 μM) for 48 h

c-Src, sequence (P12931 whole entry, species assumed): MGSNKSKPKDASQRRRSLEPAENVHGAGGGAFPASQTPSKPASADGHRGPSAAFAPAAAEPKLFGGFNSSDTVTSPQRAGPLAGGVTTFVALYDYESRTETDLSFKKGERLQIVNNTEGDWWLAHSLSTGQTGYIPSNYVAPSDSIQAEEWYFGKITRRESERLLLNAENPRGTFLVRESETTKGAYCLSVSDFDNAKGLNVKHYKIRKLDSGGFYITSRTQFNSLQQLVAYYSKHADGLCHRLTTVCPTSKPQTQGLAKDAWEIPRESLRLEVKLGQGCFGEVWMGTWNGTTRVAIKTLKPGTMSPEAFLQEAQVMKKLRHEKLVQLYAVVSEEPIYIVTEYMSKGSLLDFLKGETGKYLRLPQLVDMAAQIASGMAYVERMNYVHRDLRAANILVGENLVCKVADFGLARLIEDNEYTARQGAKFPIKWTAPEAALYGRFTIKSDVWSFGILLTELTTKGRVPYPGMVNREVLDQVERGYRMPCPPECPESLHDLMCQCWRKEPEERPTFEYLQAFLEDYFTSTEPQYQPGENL

Molecule: O=c1cc(N2CCOCC2)oc2c(-c3ccccc3)cccc12 [LY294002, 2-(4-morpholinyl)-8-phenyl-4H-1-benzopyran-4-one]
- inhibition of c-Src [1]: did not inhibit
- inhibition of PI4 kinase [2]: did not inhibit
- inhibition of PKC [3]: did not inhibit
- PI3 kinase activity [4]: specifically abolished PI3 kinase activity
- inhibition of MAP kinase [5]: did not inhibit

Molecule: C=CCN(/C=C1/C(=O)O[C@H](COC)[C@@]2(C)C1=C(O)C(=O)C1=C2[C@H](OC(C)=O)C[C@]2(C)C(=O)CC[C@@H]12)CC=C [PX-866]
- Akt phosphorylation [6]: induced Akt phosphorylation
- long-term colony forming ability [7]: unaffected
- oxygen consumption ([8]; 10 μM for 48 h): suppression of oxygen consumption
- ATP production [8, 18]: reduced ATP production
- glucose utilization [8, 18]: less glucose utilization
- lactate production [8, 18]: less
- metabolome profile [9]: extensive metabolic reprogramming
- PML nuclear body number [10]: higher PML nuclear body number
- senescence-associated β-galactosidase staining (SA-β-Gal) [10]: increased β-galactosidase staining
- expression of kinome genes ([11]; PX-866 (10 μM) for 48 h, GBM organotypic cultures): increased the expression of genes associated with growth factor signaling
- phosphorylation of Akt2 on Ser474 [12]: robust and concentration-dependent isoform-specific phosphorylation of Akt2 on Ser474
- cell cycle (DNA content) ([13]; 10 μM): arrested in the G1 phase of the cell cycle
- proliferation (direct cell counting) ([13]; 10 μM): reduced proliferation
- viability (Trypan blue, MTT) ([13]; LN229 cells, 48 h): without significant decrease in viability
- phosphorylated Ser (pSer) reactivity of WT CypD ([14]; immunoprecipitated from reconstituted LN229 cells): increased this response; also recorded: increased reactivity with an antibody to pSer
- levels of endogenous or overexpressed CypD ([14]; reconstituted cells, 10 μM for 48 h): did not affect

Molecule: Gamitrinib
- reactivation of Akt induced by PI3K inhibition [15]: prevented the reactivation of Akt
- effect on anticancer activity of PI3K/Akt/MTOR pathway antagonists [16]: potently enhanced the anticancer activity
- transcriptional changes induced by PI3K inhibition ([11]; Gamitrinib added to PX-866-treated tumor organoids): largely reversed the transcriptional changes induced by PI3K inhibition
- tumor cell proliferation, Bliss independence analysis [17]: synergistically inhibited tumor cell proliferation

Reference: patent US20240342199A1, “COMBINATION THERAPIES TARGETING MITOCHONDRIA FOR CANCER THERAPY” (The Wistar Institute of Anatomy and Biology, priority 2014, published 2024)
